Key:
[1] = biological target: T1, 17-beta-hydroxysteroid dehydrogenase type 1 (Homo sapiens) (UniProt P14061); assay: Inhibition of 17beta-HSD1 expressed in HEK 293 cells assessed as conversion of [14C]estrone to [14C]estradiol at 0.1 uM using NADH; assay type: cell-based; settings: HEK293
T1 sequence (whole entry): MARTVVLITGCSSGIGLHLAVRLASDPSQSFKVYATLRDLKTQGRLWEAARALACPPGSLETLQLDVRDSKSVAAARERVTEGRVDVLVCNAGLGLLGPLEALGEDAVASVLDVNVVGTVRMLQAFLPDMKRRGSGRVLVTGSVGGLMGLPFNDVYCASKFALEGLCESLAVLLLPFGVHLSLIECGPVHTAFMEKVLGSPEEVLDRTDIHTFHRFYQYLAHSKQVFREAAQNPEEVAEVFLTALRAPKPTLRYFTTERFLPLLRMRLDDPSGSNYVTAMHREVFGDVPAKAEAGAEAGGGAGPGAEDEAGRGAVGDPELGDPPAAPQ

[2] = biological target: T2, 17-beta-hydroxysteroid dehydrogenase type 1 (Homo sapiens, UniProt P14061); assay: Inhibition of 17beta-HSD1 expressed in HEK 293 cells assessed as conversion of [14C]estrone to [14C]estradiol using NADPH; assay type: cell-based, HEK293
T2 sequence (P14061 whole entry): T1 sequence (whole entry)

inhibition [1] [%] | IC50 [2] [nM] | SMILES
27 | – | C[C@]12CC[C@@H]3c4ccc(O)cc4CC[C@H]3[C@@H]1C[C@H](CCCCCCCCCCCCCc1cc(N)cc(CC(=O)O)c1)[C@@H]2O
– | 8 | C[C@]12CC[C@@H]3c4ccc(O)cc4CC[C@H]3[C@@H]1C[C@H](CCCCCCCCC(=O)OC[C@H]1O[C@@H](n3cnc4c(N)ncnc43)[C@H](O)[C@@H]1O)[C@@H]2O
49 | – | C[C@]12CC[C@@H]3c4ccc(O)cc4CC[C@H]3[C@@H]1C[C@H](CCCCCCCCCCCCCc1cccc(CC(=O)O)c1)[C@@H]2O

Reference: ChEMBL document CHEMBL1154469, “Design and synthesis of bisubstrate inhibitors of type 1 17beta-hydroxysteroid dehydrogenase: overview and perspectives” (Eur J Med Chem, 2008)
